Data from PMC8214221, “Sequence determinants in the cathelicidin LL-37 that promote inflammation via presentation of RNA to scavenger receptors” (The Journal of Biological Chemistry, 2021).
Residues, ends and D or L forms follow the SMILES beside them.

Each compound was assayed on normal human epidermal keratinocytes (NHEKs) (assay: LDH release cytotoxicity assay in keratinocytes). Conditions: minimal concentration giving 50% LDH release by NHEKs.
Type: cell-based
From the text: Since LL-34 was the minimal truncation mutant of LL-37 that retained both antimicrobial and immune modulatory activity, we prepared a series of synthetic peptides with sequential substitutions of alanine at each amino acid position of the LL-34 parent peptide (Table 1). We compared the minimum inhibitory concentration (MIC) for the LL-34 parent peptide and the alanine mutants (LL-34 peptides—L1A and R34A) against methicillin-resistant Staphylococcus aureus strain USA300 (Fig. 1A). LL-34 peptides were incubated at concentrations of 0 to 100 μM with bacteria. The minimal concentration at which no growth was observed was noted after 18 h of incubation. […] Because of these changes in the MIC against S. aureus between the mutants, we investigated the effective toxicity profile of the peptides in normal human epidermal keratinocytes (NHEKs) by lactate dehydrogenase (LDH) release assay (Table 1). […] Most other peptides were cytotoxic at a minimal concentration of 10 μM, whereas LL-34—K15A was toxic at a concentration of 2.5 μM.
LDH cytotoxicity assay was performed according to manufacturer's instructions (Thermo Fisher Scientific). Culture supernatants from keratinocytes were used fresh for LDH assay after experimental treatments.

In order of falling “Minimal cytotoxic concentration in NHEK (LD50)” value:
1. CC[C@H](C)[C@H](NC(=O)[C@H](C)NC(=O)[C@H](CCCCN)NC(=O)[C@H](Cc1ccccc1)NC(=O)[C@H](CCC(=O)O)NC(=O)[C@H](CCCCN)NC(=O)CNC(=O)[C@@H](NC(=O)[C@H](CCCCN)NC(=O)[C@H](CCC(=O)O)NC(=O)[C@H](CCCCN)NC(=O)[C@H](CO)NC(=O)[C@H](CCCCN)NC(=O)[C@H](CCCNC(=N)N)NC(=O)[C@H](Cc1ccccc1)NC(=O)[C@H](Cc1ccccc1)NC(=O)[C@H](CC(=O)O)NC(=O)CNC(=O)[C@H](CC(C)C)NC(=O)[C@@H](N)CC(C)C)[C@@H](C)CC)C(=O)N[C@H](C(=O)N[C@@H](CCC(N)=O)C(=O)N[C@@H](CCCNC(=N)N)C(=O)N[C@H](C(=O)N[C@@H](CCCCN)C(=O)N[C@@H](CC(=O)O)C(=O)N[C@@H](Cc1ccccc1)C(=O)N[C@@H](CC(C)C)C(=O)N[C@@H](CCCNC(=N)N)C(=O)N[C@@H](CC(N)=O)C(=O)N[C@@H](CC(C)C)C(=O)N[C@H](C(=O)N1CCC[C@H]1C(=O)N[C@@H](CCCNC(=N)N)C(=O)O)C(C)C)[C@@H](C)CC)C(C)C [LL-34—R19A] (H-LLGDFFRKSKEKIGKEFKAIVQRIKDFLRNLVPR-OH; N-terminus and C-terminus assumed)  10 µM
2. CC[C@H](C)[C@H](NC(=O)[C@H](CCCCN)NC(=O)[C@H](CCC(=O)O)NC(=O)[C@H](CCCCN)NC(=O)[C@H](CO)NC(=O)[C@H](CCCCN)NC(=O)[C@H](CCCNC(=N)N)NC(=O)[C@H](Cc1ccccc1)NC(=O)[C@H](Cc1ccccc1)NC(=O)[C@H](CC(=O)O)NC(=O)CNC(=O)[C@H](CC(C)C)NC(=O)[C@@H](N)CC(C)C)C(=O)NCC(=O)N[C@@H](CCCCN)C(=O)N[C@@H](CCC(=O)O)C(=O)N[C@@H](Cc1ccccc1)C(=O)N[C@@H](CCCCN)C(=O)N[C@@H](CCCNC(=N)N)C(=O)N[C@H](C(=O)N[C@H](C(=O)N[C@@H](C)C(=O)N[C@@H](CCCNC(=N)N)C(=O)N[C@H](C(=O)N[C@@H](CCCCN)C(=O)N[C@@H](CC(=O)O)C(=O)N[C@@H](Cc1ccccc1)C(=O)N[C@@H](CC(C)C)C(=O)N[C@@H](CCCNC(=N)N)C(=O)N[C@@H](CC(N)=O)C(=O)N[C@@H](CC(C)C)C(=O)N[C@H](C(=O)N1CCC[C@H]1C(=O)N[C@@H](CCCNC(=N)N)C(=O)O)C(C)C)[C@@H](C)CC)C(C)C)[C@@H](C)CC [LL-34—Q22A] (H-LLGDFFRKSKEKIGKEFKRIVARIKDFLRNLVPR-OH; N-terminus and C-terminus assumed)  5 µM
3. CC[C@H](C)[C@H](NC(=O)[C@H](CCCCN)NC(=O)[C@H](CCC(=O)O)NC(=O)[C@H](CCCCN)NC(=O)[C@H](CO)NC(=O)[C@H](CCCCN)NC(=O)[C@H](C)NC(=O)[C@H](Cc1ccccc1)NC(=O)[C@H](Cc1ccccc1)NC(=O)[C@H](CC(=O)O)NC(=O)CNC(=O)[C@H](CC(C)C)NC(=O)[C@@H](N)CC(C)C)C(=O)NCC(=O)N[C@@H](CCCCN)C(=O)N[C@@H](CCC(=O)O)C(=O)N[C@@H](Cc1ccccc1)C(=O)N[C@@H](CCCCN)C(=O)N[C@@H](CCCNC(=N)N)C(=O)N[C@H](C(=O)N[C@H](C(=O)N[C@@H](CCC(N)=O)C(=O)N[C@@H](CCCNC(=N)N)C(=O)N[C@H](C(=O)N[C@@H](CCCCN)C(=O)N[C@@H](CC(=O)O)C(=O)N[C@@H](Cc1ccccc1)C(=O)N[C@@H](CC(C)C)C(=O)N[C@@H](CCCNC(=N)N)C(=O)N[C@@H](CC(N)=O)C(=O)N[C@@H](CC(C)C)C(=O)N[C@H](C(=O)N1CCC[C@H]1C(=O)N[C@@H](CCCNC(=N)N)C(=O)O)C(C)C)[C@@H](C)CC)C(C)C)[C@@H](C)CC [LL-34—R7A] (H-LLGDFFAKSKEKIGKEFKRIVQRIKDFLRNLVPR-OH; N-terminus and C-terminus assumed)  5 µM
4. CC[C@H](C)[C@H](NC(=O)[C@H](CCCCN)NC(=O)[C@H](CCC(=O)O)NC(=O)[C@H](CCCCN)NC(=O)[C@H](CO)NC(=O)[C@H](CCCCN)NC(=O)[C@H](CCCNC(=N)N)NC(=O)[C@H](Cc1ccccc1)NC(=O)[C@H](Cc1ccccc1)NC(=O)[C@H](CC(=O)O)NC(=O)CNC(=O)[C@H](CC(C)C)NC(=O)[C@@H](N)CC(C)C)C(=O)NCC(=O)N[C@@H](CCCCN)C(=O)N[C@@H](CCC(=O)O)C(=O)N[C@@H](Cc1ccccc1)C(=O)N[C@@H](CCCCN)C(=O)N[C@@H](CCCNC(=N)N)C(=O)N[C@H](C(=O)N[C@H](C(=O)N[C@@H](CCC(N)=O)C(=O)N[C@@H](CCCNC(=N)N)C(=O)N[C@H](C(=O)N[C@@H](CCCCN)C(=O)N[C@@H](CC(=O)O)C(=O)N[C@@H](Cc1ccccc1)C(=O)N[C@@H](CC(C)C)C(=O)N[C@@H](C)C(=O)N[C@@H](CC(N)=O)C(=O)N[C@@H](CC(C)C)C(=O)N[C@H](C(=O)N1CCC[C@H]1C(=O)N[C@@H](CCCNC(=N)N)C(=O)O)C(C)C)[C@@H](C)CC)C(C)C)[C@@H](C)CC [LL-34—R29A] (H-LLGDFFRKSKEKIGKEFKRIVQRIKDFLANLVPR-OH; N-terminus and C-terminus assumed)  5 µM
5. CC[C@H](C)[C@H](NC(=O)[C@H](CCCCN)NC(=O)[C@H](CCC(=O)O)NC(=O)[C@H](CCCCN)NC(=O)[C@H](C)NC(=O)[C@H](CCCCN)NC(=O)[C@H](CCCNC(=N)N)NC(=O)[C@H](Cc1ccccc1)NC(=O)[C@H](Cc1ccccc1)NC(=O)[C@H](CC(=O)O)NC(=O)CNC(=O)[C@H](CC(C)C)NC(=O)[C@@H](N)CC(C)C)C(=O)NCC(=O)N[C@@H](CCCCN)C(=O)N[C@@H](CCC(=O)O)C(=O)N[C@@H](Cc1ccccc1)C(=O)N[C@@H](CCCCN)C(=O)N[C@@H](CCCNC(=N)N)C(=O)N[C@H](C(=O)N[C@H](C(=O)N[C@@H](CCC(N)=O)C(=O)N[C@@H](CCCNC(=N)N)C(=O)N[C@H](C(=O)N[C@@H](CCCCN)C(=O)N[C@@H](CC(=O)O)C(=O)N[C@@H](Cc1ccccc1)C(=O)N[C@@H](CC(C)C)C(=O)N[C@@H](CCCNC(=N)N)C(=O)N[C@@H](CC(N)=O)C(=O)N[C@@H](CC(C)C)C(=O)N[C@H](C(=O)N1CCC[C@H]1C(=O)N[C@@H](CCCNC(=N)N)C(=O)O)C(C)C)[C@@H](C)CC)C(C)C)[C@@H](C)CC [LL-34—S9A] (H-LLGDFFRKAKEKIGKEFKRIVQRIKDFLRNLVPR-OH; N-terminus and C-terminus assumed)  5 µM
6. CC[C@H](C)[C@H](NC(=O)[C@H](CCCCN)NC(=O)[C@H](CCC(=O)O)NC(=O)[C@H](CCCCN)NC(=O)[C@H](CO)NC(=O)[C@H](CCCCN)NC(=O)[C@H](CCCNC(=N)N)NC(=O)[C@H](Cc1ccccc1)NC(=O)[C@H](Cc1ccccc1)NC(=O)[C@H](CC(=O)O)NC(=O)CNC(=O)[C@H](CC(C)C)NC(=O)[C@@H](N)CC(C)C)C(=O)NCC(=O)N[C@@H](CCCCN)C(=O)N[C@@H](CCC(=O)O)C(=O)N[C@@H](Cc1ccccc1)C(=O)N[C@@H](CCCCN)C(=O)N[C@@H](CCCNC(=N)N)C(=O)N[C@H](C(=O)N[C@@H](C)C(=O)N[C@@H](CCC(N)=O)C(=O)N[C@@H](CCCNC(=N)N)C(=O)N[C@H](C(=O)N[C@@H](CCCCN)C(=O)N[C@@H](CC(=O)O)C(=O)N[C@@H](Cc1ccccc1)C(=O)N[C@@H](CC(C)C)C(=O)N[C@@H](CCCNC(=N)N)C(=O)N[C@@H](CC(N)=O)C(=O)N[C@@H](CC(C)C)C(=O)N[C@H](C(=O)N1CCC[C@H]1C(=O)N[C@@H](CCCNC(=N)N)C(=O)O)C(C)C)[C@@H](C)CC)[C@@H](C)CC [LL-34—V21A] (H-LLGDFFRKSKEKIGKEFKRIAQRIKDFLRNLVPR-OH; N-terminus and C-terminus assumed)  5 µM
